The source of these data is US20240415805A1 (priority 2023, published 2024).

Entries after “also recorded” stand apart in the source; their conditions may differ.

For one data set, the system named is Pg 33277. The experiment in a line: Antibiotic protection assay: invasion of Pg cells into human primary oral keratinocytes. The format is cell-based. The note with it: Porphyromonas gingivalis, 33277, Keratinocyte, read-out: Pg inhibited from entry into HOKs. The protocol:
Inhibition of Pg cells invasion by GM. The ability of Pg to invade oral epithelial cells was determined using an antibiotic protection assay as described^28. Human primary oral keratinocytes (HOKs, 5×10^4 cells, ScienCell® Research Laboratories) were seeded in a 24-well plate. After incubating with Pg 33277 for 1 h, HOKs were continually cultured for another 4 h in the presence of antibiotics (gentamicin (300 μg/ml) and metronidazole (200 μg/ml)) to eliminate extracellular bacteria. The HOKs were then lysed, and the internalized bacteria were plated on TSB blood agar plates. The plates were incubated anaerobically at 37° C. for 7 days, and CFUs of Pg were enumerated. […] In the presence of 40 nM GM, more than 95% of Pg were inhibited from entry into HOKs. In addition, the role of GM in Pg re-entry was tested. After exposure to Pg cells for 1 h and then antibiotic treatment for 4 h, HOKs were continuously cultured for 24 h in the presence of GM (20 nM), antibiotics, or GM and antibiotics. Intracellular Pg was determined as described^28. As expected, intracellular Pg cells moved in and out of the HOKs.

For another data set, the system named is HOKs. Briefly: HOK cell viability (Promega CellTiter-Glo). The format is cell-based, human. Conditions: 48 h. The protocol: Each bar represents the mean±standard deviation of luminescence levels representing relative the number of viable cells. Data are the mean of at least three independent experiments.
To examine potential cytotoxic effects of GM, HOKs were cultured in the presence of a range of GM from 0 to 1,000 nM for 48 h and the number of viable cells in the culture was determined using Promega™ CellTiter-Glo™.

The test system of the next data set is Pg 33277 vesicles. Conditions: 30 μM; previously reported; cited from earlier work.

Consider `C=C(C)[C@@]12C[C@@H](COC(=O)c3ccccc3)[C@@]34OC5(O[C@@H]1[C@@H]3[C@@H]1O[C@]1(CO)[C@@H](O)[C@@]1(O)[C@H]4[C@H]([C@H](C)[C@@H]1OC(=O)c1ccccc1)[C@H](C)CCCCCC[C@H]5O)O2` [GM, gnidimacrin], for which, in the data set on Pg 33277, the inhibition at 0.04 µM was greater than 95%. The “cell viability of HOKs” value with HOKs (GM 0 to 1,000 nM, as high as luM) is “does not affect host cell viability; also recorded: no impact”. Besides, the “highest concentration without viability effect relative to the concentration that inhibits Pg invasion” value in the data set with HOKs (HOKs) is reported as “approximately 50 times”.

In the case of `O=C(N/N=C/c1ccc(O)c(O)c1)c1cc2ccccc2cc1O` [dynasore], the Pg vesicle invasion entry with Pg 33277 vesicles was “inhibited the vesicle invasion”.
